# Experimental data reported in patent US20130109581A1, “POSITIVELY CHARGED SPECIES AS BINDING REAGENTS IN THE SEPARATION OF PROTEIN AGGREGATES FROM MONOMERS” (priority 2009, published 2013).
# Key:
# [1] = target: T1, Aβ40 aggregates in AD CSF (Homo sapiens, UniProt P05067); experiment: Discrimination between AD and normal CSF; format: binding; conditions: FIG. 39
# T1 construct: from tissue; host or cells: pooled cerebrospinal fluid (normal or AD)
# Procedure: The Ab42 aggregates were prepared as previously described: fibrils were prepared per Stine et al (JBC 2003, 278, p11612), globulomers were prepared per Barghorn et al (J Neurology 2005 95 p834), ADDLs were prepared per Lambert et al (PNAS 1998, 95 p6448), and ASPDs were prepared per Noguchi et al (JBC 2009 284 p32895). Normal CSF was pooled from clinically characterized non-demented patient CSF samples. AD CSF was pooled from clinically-characterized AD patient samples. Alzheimer's Disease Brain Homogenate (ADBH) was prepared by sonication of clinically diagnosed AD patient brain samples in 0.2M.sucrose (1:10 w/v).
# For the capture assay (Misfolded Protein Assay), aliquots of the beads (30 ul) were added to wells of a 96 well plate, followed by 125 ul of sample in 80:20 CSF:TBSTT. The plate was sealed and incubated for 1 h at 37 C with shaking. The plate was washed with TBST and the residual buffer removed. A denaturing solution (0.1 N NaOH) was added to each well and the plate heated to 80 C. for 30 min with shaking. After cooling the plate to RT, a neutralizing buffer (0.12 M NaH2PO3-0.4% TW20,) was added and the plate shaken briefly at RT. The assay was analyzed using the triplex Mesoscale Discovery ELISA kit for Aβ. The Aβ in the samples eluted from the beads were detected per the manufacturer's protocol.
# For discriminating between AD and normal CSF, pooled normal CSF or pooled Alzheimer's Disease patient CSF, were assayed per the protocol described above.
# PrP^Sc = PrP^Sc (Mesocricetus auratus, UniProt P04273)
# Chain of PrP^Sc (P04273 23-231 limits assumed): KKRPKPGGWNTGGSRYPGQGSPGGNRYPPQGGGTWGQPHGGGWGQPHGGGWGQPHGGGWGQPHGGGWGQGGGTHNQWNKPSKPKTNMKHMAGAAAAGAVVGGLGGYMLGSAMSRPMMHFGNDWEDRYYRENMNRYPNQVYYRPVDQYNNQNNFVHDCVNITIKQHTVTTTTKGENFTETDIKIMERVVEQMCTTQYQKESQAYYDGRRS
# prion protein = prion protein (Homo sapiens, UniProt P04156)
# [2] = target: T2, AA-related moieties (serum amyloid A aggregates) (Mus musculus, UniProt P05367); experiment: PSR-1 bead-based capture of AA species from spleen homogenates; format: binding
# T2 construct: These experiments indicate that PSR1-coated beads can capture AA-related moieties; from tissue; host or cells: spleen homogenate of mice with induced AA amyloidosis
# T2 sequence (P05367 20-94 limits assumed): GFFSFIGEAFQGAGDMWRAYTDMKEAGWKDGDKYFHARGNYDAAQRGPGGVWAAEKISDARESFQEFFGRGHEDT
# Procedure: Amyloid enhancing factor (AEF) was extracted from amyloid-laden liver as described earlier, and used for amyloid induction in four different groups of mice. Each mouse received 20 ug of protein extract as an intravenous injection in the tail vein and systemic inflammation was stimulated by concomitant subcutaneous injection of 0.2 ml 1% silver nitrate (AgNO3). Further inflammatory stimuli were given once a week on day 7, 14 and 21. Mice were sacrificed in several time points on day 5, 9, 16 and 23. Control mice received only single silver nitrate injection and were sacrificed 16 hrs later.
# 10% spleen homogenates were prepared in PBS, […], using an ultra-sound tissue homogenizator. Homogenates were centrifuged at 200×g for 1 min and the supernatants were used for the PSR1 bead-based capture assay. For immunoblotting analysis the PBS-insoluble tissue pellet was solubilised in 8M urea for 24 hrs on a wheel at room temperature.
# PSR1-conjugated beads were washed two times with 1 ml of TBS-TT (TBS, 1% TritonX, 1% Tween20) before incubation with 10% spleen homogenate in a total volume of 100 μl TBS-TT for 1 hr at 37° C. and under shaking at 750 rpm. […] 150 ul of eluate was aspirated from the beads and the presence of SAA/AA proteins were analysed using the mouse SAA ELISA from Tridelta Ltd. or by immunoblotting. […]
# T1 sequence (P05067 672-711 limits assumed): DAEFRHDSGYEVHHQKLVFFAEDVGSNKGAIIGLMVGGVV
substance,measurement,setting,value
Nab-Nab-Nab-Nbn-Nab-Nbn [PSR1],Aβ40 signal in pooled AD CSF relative to normal pool,[1],higher Aβ40 signal in positive pooled AD CSF relative to unmatched normal pool
same,PrP^Sc capture signal,PrP^Sc,Signal was observed with the 100 or 300 ng/mL spike levels
same,"distinguishing control and vCJD brain homogenates, prion protein detected",prion protein,clearly distinguished between control and either vCJD or AD samples
same,SAA detected in eluates (sandwich ELISA),"[2]; 3 uL PSR1 beads, spleen homogenate with splenic AA vs untreated control",SAA could be detected only in the eluates from the AA-containing sample
same,SAA detected in eluates after denaturation of input,"[2]; denatured, buffered and undenatured AA-containing samples, FIG. 44",SAA could be detected only in the eluates from undenatured or buffered AA-containing samples
